Assay results reported in patent US20230095495A1, “SKIN CONDITIONING COMPOSITION WITH HIGH CONCENTRATION OF UREA TO BOOST THE SKINCARE ACTIVES” (L'OREAL, priority 2021, published 2023).

How the values were obtained:
[1] = acute oral toxicity, mutagenicity, skin irritation, skin sensitization, phototoxicity; cited from earlier work
stratum corneum = assay: In vitro stratum corneum comparison of ΔT by differential scanning calorimetry (DSC); conditions: variation of INV #1 applied first without rinsing, then hydroxy-acid based peel moisturizer; compared to peel moisturizer alone
Experimental: In studies, the effect of urea at various concentrations and using hydroxyethyl urea (HEU) was according to INV #1 (40% urea, 5% glycine, 0.7% triacetin, buffer) in which the amount and form of urea was varied. […] Studies were conducted with each of the tested compositions to evaluate effect of the compositions on the stratum corneum.
In Vitro Stratum Corneum Comparison of Δ T using differential scanning calorimetry (DSC) is used to characterize the stability of a protein or other biomolecule directly in its native form. It does this by measuring the heat change associated with the molecule's thermal denaturation when heated at a constant rate. Compositions were evaluated on SC samples according to the following procedure. Stratum corneum samples were equilibrated at 75% relative humidity (RH) overnight. Inventive and Comparative Compositions and control treatments applied on SC surface (0.1 g/sample) for 15 min in 75% RH. The SC surface was wiped clean and rinsed with DI water. Allow to dry in 75% RH overnight. The DSC profile was measured from 20° C. to 120° C. at 5° C./min.
As an initial step, each test composition was applied first to skin without rinsing, followed by application of a hydroxy-acid based peel composition in a moisturizer form.

Compound	adverse effects in basic toxicological tests [1]	desquamation evidenced by stratum corneum disorganization, with increased amounts (stratum corneum)
CC(c1ccccc1)c1ccc(O)cc1O (stereo not drawn) [Phenylethyl resorcinol, phenylethyl resorcinol]	has not shown adverse effects	
NC(=O)NCCO [hydroxyethyl urea]		increased desquamation
NC(N)=O [urea]		increased desquamation
